Test results: ChEMBL document CHEMBL2440076, “New triarylpyrazoles as broad-spectrum anticancer agents: design, synthesis, and biological evaluation” (Eur J Med Chem, 2013)

What was measured:
RPMI-8226 = assay: Growth inhibition of human RPMI8226 cells after 48 hrs by sulforhodamine B assay; format: functional, cell-based; conditions: RPMI-8226, 48 h
NCI-H322M = assay: Growth inhibition of human NCI-H322M cells assessed as cell growth at 10 uM after 48 hrs by sulforhodamine B assay; format: functional; conditions: read-out: Activity
MDA-MB-468 = assay: Growth inhibition of human MDA-MB-468 cells after 48 hrs by sulforhodamine B assay; format: functional, cell-based; conditions: MDA-MB-468, 48 h
UO-31 [1] = assay: Growth inhibition of human UO31 cells after 48 hrs by sulforhodamine B assay; format: functional; conditions: UO-31, 48 h
IGROV-1 = assay: Growth inhibition of human IGROV1 cells after 48 hrs by sulforhodamine B assay; format: functional; conditions: IGROV-1, 48 h
MDA-MB-435 [2] = assay: Growth inhibition of human MDA-MB-435 cells assessed as cell growth at 10 uM after 48 hrs by sulforhodamine B assay; format: functional; conditions: MDA-MB-435, 48 h, read-out: Activity
K562 [3] = assay: Growth inhibition of human K562 cells after 48 hrs by sulforhodamine B assay; format: functional; conditions: K562, 48 h
ACHN = assay: Growth inhibition of human ACHN cells assessed as cell growth at 10 uM after 48 hrs by sulforhodamine B assay; format: functional; conditions: read-out: Activity
M14 = assay: Growth inhibition of human M14 cells assessed as cell growth at 10 uM after 48 hrs by sulforhodamine B assay; format: functional; conditions: M14, 48 h, read-out: Activity
SK-MEL-28 = assay: Growth inhibition of human SK-MEL-28 cells after 48 hrs by sulforhodamine B assay; format: functional; conditions: SK-MEL-28, 48 h
COLO 205 = assay: Growth inhibition of human COLO205 cells after 48 hrs by sulforhodamine B assay; format: functional; conditions: COLO 205, 48 h
UO-31 [4] = assay: Growth inhibition of human UO31 cells assessed as cell growth at 10 uM after 48 hrs by sulforhodamine B assay; format: functional; conditions: UO-31, 48 h, read-out: Activity
LOX IMVI = assay: Growth inhibition of human LOXIMVI cells after 48 hrs by sulforhodamine B assay; format: functional
SK-OV-3 = assay: Growth inhibition of human SKOV3 cells assessed as cell growth at 10 uM after 48 hrs by sulforhodamine B assay; format: functional; conditions: SK-OV-3, 48 h, read-out: Activity
T47D [5] = assay: Growth inhibition of human T47D cells after 48 hrs by sulforhodamine B assay; format: functional
MDA-MB-435 [6] = assay: Growth inhibition of human MDA-MB-435 cells after 48 hrs by sulforhodamine B assay; format: functional, cell-based; conditions: MDA-MB-435, 48 h
MDA-MB-231 [7] = assay: Growth inhibition of human MDA-MB-231 cells assessed as cell growth at 10 uM after 48 hrs by sulforhodamine B assay; format: functional; conditions: MDA-MB-231, 48 h, read-out: Activity
MDA-MB-231 [8] = assay: Growth inhibition of human MDA-MB-231 cells after 48 hrs by sulforhodamine B assay; format: functional; conditions: MDA-MB-231, 48 h
OVCAR-8 = assay: Growth inhibition of human OVCAR8 cells assessed as cell growth at 10 uM after 48 hrs by sulforhodamine B assay; format: functional; conditions: OVCAR-8, 48 h, read-out: Activity
786-0 [9] = assay: Growth inhibition of human 786-0 cells after 48 hrs by sulforhodamine B assay; format: functional; conditions: 786-0, 48 h
DU-145 = assay: Growth inhibition of human DU145 cells assessed as cell growth at 10 uM after 48 hrs by sulforhodamine B assay; format: functional; conditions: DU-145, 48 h, read-out: Activity
HOP-62 = assay: Growth inhibition of human HOP62 cells after 48 hrs by sulforhodamine B assay; format: functional; conditions: HOP-62, 48 h
UACC-62 = assay: Growth inhibition of human UACC62 cells assessed as cell growth at 10 uM after 48 hrs by sulforhodamine B assay; format: functional; conditions: UACC-62, 48 h, read-out: Activity
SNB-19 = assay: Growth inhibition of human SNB19 cells assessed as cell growth at 10 uM after 48 hrs by sulforhodamine B assay; format: functional; conditions: SNB-19, 48 h, read-out: Activity
OVCAR-4 = assay: Growth inhibition of human OVCAR4 cells assessed as cell growth at 10 uM after 48 hrs by sulforhodamine B assay; format: functional; conditions: OVCAR-4, 48 h, read-out: Activity
[10] = Growth inhibition of human Hs 578T cells assessed as cell growth at 10 uM after 48 hrs by sulforhodamine B assay; format: functional; conditions: read-out: Activity
K562 [11] = assay: Growth inhibition of human K562 cells assessed as cell growth at 10 uM after 48 hrs by sulforhodamine B assay; format: functional; conditions: K562, 48 h, read-out: Activity
SF-295 = assay: Growth inhibition of human SF295 cells after 48 hrs by sulforhodamine B assay; format: functional, cell-based; conditions: SF-295, 48 h
T47D [12] = assay: Growth inhibition of human T47D cells assessed as cell growth at 10 uM after 48 hrs by sulforhodamine B assay; format: functional; conditions: read-out: Activity
786-0 [13] = assay: Growth inhibition of human 786-0 cells assessed as cell growth at 10 uM after 48 hrs by sulforhodamine B assay; format: functional; conditions: 786-0, 48 h, read-out: Activity
[14] = Growth inhibition of human HCC2998 cells after 48 hrs by sulforhodamine B assay; format: functional; conditions: HCC 2998, 48 h
HL-60(TB) = assay: Growth inhibition of human HL-60(TB) cells after 48 hrs by sulforhodamine B assay; format: functional; conditions: HL-60, 48 h
A498 = assay: Growth inhibition of human A498 cells assessed as cell growth at 10 uM after 48 hrs by sulforhodamine B assay; format: functional; conditions: A498, 48 h, read-out: Activity
HCT-15 = assay: Growth inhibition of human HCT15 cells after 48 hrs by sulforhodamine B assay; format: functional; conditions: HCT-15, 48 h
[15] = read-out: LC50 (the source's name)

`COc1cc(-c2nn(-c3cccc(NC(=O)Nc4ccc(Cl)c(Cl)c4)c3)cc2-c2ccncc2)ccc1Cl` gave a GI50 (RPMI-8226) of 388 nM, an IC50 (RPMI-8226) of 390 nM and a TGI (RPMI-8226) of 3260 nM. For the same compound, the CC50 (RPMI-8226; [15]) was > 50000 nM, the growth at 10 µM (NCI-H322M) was 38.8% and the GI50 (MDA-MB-468) was 567 nM. For the same compound, the IC50 (MDA-MB-468) was 570 nM, the TGI (MDA-MB-468) was 2270 nM and the CC50 (MDA-MB-468; [15]) was > 50000 nM. The GI50 (UO-31 [1]) was 845 nM, the TGI (UO-31 [1]) was 4980 nM and the CC50 (UO-31 [1]; [15]) was > 50000 nM. For the same compound, the GI50 (IGROV-1) was 1180 nM, the LC50 (concentration killing 50% of cells) (IGROV-1) was > 50000 nM and the TGI (IGROV-1) was 3480 nM. The growth at 10 µM (MDA-MB-435 [2]) was -45.8%, the GI50 (K562 [3]) was 890 nM and the TGI (K562 [3]) was > 50000 nM. The CC50 (K562 [3]; [15]) was > 50000 nM, the growth at 10 µM (ACHN) was 11.5% and the growth at 10 µM (M14) was 0.29%. For the same compound, the GI50 (SK-MEL-28) was 1430 nM, the LC50 (SK-MEL-28) was > 50000 nM and the TGI (SK-MEL-28) was 7320 nM. For the same compound, the GI50 (COLO 205) was 937 nM, the LC50 (concentration killing 50% of cells) (COLO 205) was 3140 nM and the TGI (COLO 205) was 1720 nM. The growth at 10 µM (UO-31 [4]) was 15.9%, the GI50 (LOX IMVI) was 954 nM and the LC50 (LOX IMVI) was > 50000 nM. For the same compound, the TGI (LOX IMVI) was 2620 nM, the growth at 10 µM (SK-OV-3) was 11.8% and the GI50 (T47D [5]) was 1420 nM. For the same compound, the TGI (T47D [5]) was > 50000 nM, the CC50 (T47D [5]; [15]) was > 50000 nM and the GI50 (MDA-MB-435 [6]) was 938 nM. The IC50 (MDA-MB-435 [6]) was 940 nM, the TGI (MDA-MB-435 [6]) was 2390 nM and the CC50 (MDA-MB-435 [6]; [15]) was > 50000 nM. The growth at 10 µM (MDA-MB-231 [7]) was -40.1%, the GI50 (MDA-MB-231 [8]) was 698 nM and the LC50 (MDA-MB-231 [8]) was 12900 nM. It also gave a TGI (MDA-MB-231 [8]) of 1920 nM, a growth at 10 µM (OVCAR-8) of -17.2% and a GI50 (786-0 [9]) of 1310 nM. For the same compound, the TGI (786-0 [9]) was 4470 nM, the CC50 (786-0 [9]; [15]) was > 50000 nM and the growth at 10 µM (DU-145) was 20%. The GI50 (HOP-62) was 1440 nM, the TGI (HOP-62) was 4900 nM and the CC50 (HOP-62; [15]) was > 50000 nM. The growth at 10 µM (UACC-62) was -65.1%, the growth at 10 µM (SNB-19) was 27.2% and the growth at 10 µM (OVCAR-4) was 19.8%. It also gave a growth at 10 µM [10] of -6.95%, a growth at 10 µM (K562 [11]) of 3.63% and a GI50 (SF-295) of 691 nM. For the same compound, the IC50 (SF-295) was 690 nM, the TGI (SF-295) was 2530 nM and the CC50 (SF-295; [15]) was > 50000 nM. The growth at 10 µM (T47D [12]) was 2.98%, the growth at 10 µM (786-0 [13]) was 15.3% and the GI50 [14] was 1560 nM. For the same compound, the TGI [14] was 6200 nM, the CC50 [14, 15] was > 50000 nM and the GI50 (HL-60(TB)) was 1660 nM. The TGI (HL-60(TB)) was > 50000 nM, the CC50 (HL-60(TB); [15]) was > 50000 nM and the growth at 10 µM (A498) was -6.82%. The GI50 (HCT-15) was 1230 nM, the LC50 (HCT-15) was > 50000 nM and the TGI (HCT-15) was > 50000 nM.
